Experimental findings from US7687435B2, “Benzoyl-substituted phenylalanineamides” (BASF Aktiengesellschaft, priority 2003, dated 2010) are described below.

One data set relates to green foxtail. In words: greenhouse post-emergence herbicidal test, green foxtail. Type of data set: in vivo, Setaria viridis. An excerpt: (§1) The seeds of the test plants were sown separately for each species. For the post-emergence treatment, the test plants were first grown to a height of 3 to 15 cm, depending on the plant habit, and only then treated with the active ingredients which had been suspended or emulsified in water. For this purpose, the test plants were either sown directly and grown in the same containers, or they were first grown separately as seedlings and transplanted into the test containers a few days prior to treatment. The rate of application for the post-emergence treatment was 1.0, 0.5, 0.25, 0.125 or 0.0625 kg/ha of a.s. (active substance). Depending on the species, the plants were kept at 10-25° C. or 20-35° C. The test period extended over 2 to 4 weeks. During this time, the plants were tended, and their response to the individual treatments was evaluated. Evaluation was carried out using a scale from 0 to 100. 100 means no emergence of the plants, or complete destruction of at least the aerial parts, and 0 means no damage, or normal course of growth. The plants used in the greenhouse experiments belonged to the following species: [table]

The next data set relates to lambsquarters. Nature of the data set: greenhouse post-emergence herbicidal test, lambsquarters. Format: in vivo, Chenopodium album.
From the text: as §1

The next data set concerns pig weed. In words: greenhouse post-emergence herbicidal test, pig weed. Type of data set: in vivo, Amaranthus retroflexus.
From the text: as §1

Another data set concerns black bindweed. Nature of the data set: greenhouse post-emergence herbicidal test, black bindweed. Format: in vivo, Polygonum convolvulus.
From the text: as §1

The subject of the next data set is cleavers harrif. In words: greenhouse post-emergence herbicidal test, cleavers harrif. Type of data set: in vivo, Galium aparine.
From the text: as §1

Another data set concerns velvet leaf. In words: greenhouse post-emergence herbicidal test, velvet leaf. Type of data set: in vivo, Abutilon theophrasti. The settings on record: application rate 0.5 kg/ha.
From the text: as §1

The next data set relates to wild oat. In words: greenhouse post-emergence herbicidal test, wild oat. Type of data set: in vivo, Avena fatua. Particulars: application rate 0.5 kg/ha.
From the text: as §1

For `CNC(=O)C(NC(=O)c1ccccc1C(F)(F)F)C(O)c1ccccc1` (racemic) [Compound 3.2], the “post-emergence action against green foxtail” value in the data set on green foxtail (application rate 1.00 kg/ha) is recorded as “very good”. In addition, the “post-emergence action against lambsquarters” value with lambsquarters (application rate 1.00 kg/ha) was “very good”. In addition, in the data set with pig weed (application rate 1.00 kg/ha), the “post-emergence action against pig weed” value is reported as “very good”.
For `CNC(=O)C(NC(=O)c1ccc(F)cc1C(F)(F)F)C(O)c1ccccc1[N+](=O)[O-]` (racemic) [Compound 3.67], in the data set with green foxtail (application rate 1.00 kg/ha), the “post-emergence action against green foxtail” value is “very good”. Besides, the “post-emergence action against lambsquarters” value in the data set on lambsquarters (application rate 1.00 kg/ha) is on record as “very good”. In the data set with pig weed (application rate 1.00 kg/ha), the “post-emergence action against pig weed” value is given as “very good”.
For the molecule `CNC(=O)C(NC(=O)c1ccc(F)cc1C(F)(F)F)C(OC(=O)N(C)C)c1cccc(N)c1` (racemic) [Compound 3.123], in the data set on black bindweed (application rate 1.00 kg/ha), the “post-emergence action on black bindweed” value is “very good”. Moreover, in the data set with lambsquarters (application rate 1.00 kg/ha), the “post-emergence action against lambsquarters” value is reported as “very good”. The “post-emergence action against pig weed” value in the data set with pig weed (application rate 1.00 kg/ha) is on record as “very good”.
As to `CNC(=O)C(NC(=O)c1ccc(F)cc1C(F)(F)F)C(OC(=O)N(C)C)c1cccc(NS(C)(=O)=O)c1` (racemic) [Compound 3.128], the “post-emergence action against green foxtail” value with green foxtail (application rate 1.00 kg/ha) is on record as “very good”. For the same molecule, the “post-emergence action against lambsquarters” value with lambsquarters (application rate 1.00 kg/ha) was “very good”. For the same molecule, the “post-emergence action against pig weed” value in the data set with pig weed (application rate 1.00 kg/ha) is reported as “very good”.
As for `CNC(=O)C(NC(=O)c1ccc(F)cc1C(F)(F)F)C(O[Si](C)(C)C(C)(C)C)c1ccccc1` (racemic) [Compound 3.154], the “post-emergence control of cleavers harrif” value with cleavers harrif (application rate 1.0 kg/ha) was “very good”. Further, the “post-emergence action on black bindweed” value with black bindweed (application rate 1.00 kg/ha) is recorded as “very good”. The “post-emergence action against green foxtail” value in the data set on green foxtail (application rate 1.00 kg/ha) is recorded as “very good”. Besides, the “post-emergence action against lambsquarters” value with lambsquarters (application rate 1.00 kg/ha) is “very good”. For the same molecule, in the data set on pig weed (application rate 1.00 kg/ha), the “post-emergence action against pig weed” value is listed as “very good”.
As to `CNC(=O)C(NC(=O)c1cccc([N+](=O)[O-])c1C)C(O)c1ccccc1` (racemic) [Compound 5.20], the “post-emergence action on velvet leaf” value with velvet leaf was “very good”.
Same read-out and setting: to `CNC(=O)C(NC(=O)c1ccccc1OC(F)(F)F)C(O)c1ccccc1` (racemic) [Compound 5.36] belongs “very good”.
Consider `CNC(=O)C(NC(=O)c1ccccc1SC(F)F)C(O)c1ccccc1` (racemic) [Compound 5.37], for which the “post-emergence action on velvet leaf” value with velvet leaf was “controlled”. The “post-emergence control of wild oat” value in the data set with wild oat is reported as “controlled”.
On to `CNC(=O)[C@@H](NC(=O)c1ccc(F)cc1C(F)(F)F)[C@H](O)c1cccc(F)c1C` [Compound 3.10], for which the “post-emergence action against green foxtail” value with green foxtail (application rate 1.00 kg/ha) is “very good”. Also, the “post-emergence action against lambsquarters” value with lambsquarters (application rate 1.00 kg/ha) was “very good”. Also, the “post-emergence action against pig weed” value in the data set with pig weed (application rate 1.00 kg/ha) is “very good”.
Consider `CNC(=O)[C@@H](NC(=O)c1ccc(F)cc1C(F)(F)F)[C@H](O)c1cccc(Cl)c1C` [Compound 3.11], for which the “post-emergence action against green foxtail” value with green foxtail (application rate 1.00 kg/ha) is on record as “very good”. The “post-emergence action against lambsquarters” value in the data set with lambsquarters (application rate 1.00 kg/ha) was “very good”. In the data set with pig weed (application rate 1.00 kg/ha), the “post-emergence action against pig weed” value is listed as “very good”.
With `CNC(=O)C(NC(=O)c1ccc(F)cc1C(F)(F)F)C(OC(=O)N(C)C)c1ccccc1C` (stereo not shown) [Compound 3.28], the “post-emergence action against green foxtail” value in the data set on green foxtail (application rate 1.00 kg/ha) is “very good”. Also, the “post-emergence action against lambsquarters” value in the data set with lambsquarters (application rate 1.00 kg/ha) is listed as “very good”. The “post-emergence action against pig weed” value with pig weed (application rate 1.00 kg/ha) was “very good”.
By melting point is commonly meant the temperature, or range, at which the solid turns liquid. The molecule `CNC(=O)C(NC(=O)c1ccc(F)cc1C(F)(F)F)C(c1ccccc1)N(C=O)Cc1ccccc1` (stereo not shown) [Compound 3.43, N-[2-(N-Benzyl-N-formylamino)-1-methylcarbamoyl-2-phenylethyl]-4-fluoro-2-trifluoromethylbenzamide] registered a melting point of 212 °C.
For `CNC(=O)C(NC(=O)c1ccc(F)cc1C(F)(F)F)C(O)c1ccccc1CO` (stereo not shown) [Compound 3.61], the “post-emergence control of cleavers harrif” value in the data set on cleavers harrif (application rate 0.5 kg/ha) was “very good”. The “post-emergence action on black bindweed” value with black bindweed (application rate 0.5 kg/ha) is on record as “very good”. The “post-emergence action against lambsquarters” value in the data set on lambsquarters (application rate 0.5 kg/ha) is “very good”. Also, in the data set on pig weed (application rate 0.5 kg/ha), the “post-emergence action against pig weed” value is reported as “very good”.
`CNC(=O)C(NC(=O)c1ccc(F)cc1C(F)(F)F)C(O)c1ccccc1COC(C)=O` (stereo not shown) [Compound 3.62]: in the data set on cleavers harrif (application rate 0.5 kg/ha), the “post-emergence control of cleavers harrif” value was “very good”. For the same molecule, in the data set with green foxtail (application rate 0.5 kg/ha), the “post-emergence action against green foxtail” value is recorded as “very good”. Besides, in the data set on lambsquarters (application rate 0.5 kg/ha), the “post-emergence action against lambsquarters” value is reported as “very good”. Moreover, the “post-emergence action against pig weed” value in the data set on pig weed (application rate 0.5 kg/ha) is recorded as “very good”.
For the molecule `CNC(=O)C(NC(=O)c1ccc(F)cc1C(F)(F)F)C(O)c1ccccc1COS(C)(=O)=O` (stereo not shown) [Compound 3.65], the “post-emergence action on black bindweed” value in the data set with black bindweed (application rate 0.5 kg/ha) is reported as “very good”. In the data set on lambsquarters (application rate 0.5 kg/ha), the “post-emergence action against lambsquarters” value is recorded as “very good”. The “post-emergence action against pig weed” value in the data set on pig weed (application rate 0.5 kg/ha) is reported as “very good”.
Regarding `CNC(=O)C(NC(=O)c1ccc(F)cc1C(F)(F)F)C(O)c1ccccc1OCc1ccccc1` (stereo not shown) [Compound 3.66], the “post-emergence action against green foxtail” value in the data set on green foxtail (application rate 1.00 kg/ha) is on record as “very good”. For the same molecule, the “post-emergence action against lambsquarters” value in the data set on lambsquarters (application rate 1.00 kg/ha) is “very good”. Moreover, in the data set on pig weed (application rate 1.00 kg/ha), the “post-emergence action against pig weed” value is “very good”.
With `CNC(=O)C(NC(=O)c1ccc(F)cc1C(F)(F)F)C(OC(=O)COCCOCCOC)c1ccccc1COC(=O)COCCOCCOC` (stereo not shown) [Compound 3.96], in the data set with cleavers harrif (application rate 0.5 kg/ha), the “post-emergence control of cleavers harrif” value was “very good”. Besides, the “post-emergence action on black bindweed” value in the data set with black bindweed (application rate 0.5 kg/ha) was “very good”. For the same molecule, in the data set with lambsquarters (application rate 0.5 kg/ha), the “post-emergence action against lambsquarters” value is given as “very good”. Also, the “post-emergence action against pig weed” value in the data set with pig weed (application rate 0.5 kg/ha) was “very good”.
As to `CNC(=O)C(NC(=O)c1ccc(F)cc1C(F)(F)F)C(OC(=O)N(C)C)c1ccccc1COC(=O)N(C)C` (stereo not shown) [Compound 3.131], in the data set on cleavers harrif (application rate 0.5 kg/ha), the “post-emergence control of cleavers harrif” value was “very good”. Also, in the data set on black bindweed (application rate 0.5 kg/ha), the “post-emergence action on black bindweed” value is reported as “very good”. The “post-emergence action against lambsquarters” value in the data set with lambsquarters (application rate 0.5 kg/ha) is recorded as “very good”. Moreover, the “post-emergence action against pig weed” value in the data set on pig weed (application rate 0.5 kg/ha) is reported as “very good”.
On to `CNC(=O)[C@@H](NC(=O)c1ccc(F)cc1C(F)(F)F)[C@H](OC(=O)NS(=O)(=O)C(F)(F)F)c1cccc(F)c1C` [Compound 3.137], for which the “post-emergence action on black bindweed” value in the data set on black bindweed (application rate 1.00 kg/ha) is “very good”. Further, in the data set with lambsquarters (application rate 1.00 kg/ha), the “post-emergence action against lambsquarters” value is reported as “very good”. Further, in the data set on pig weed (application rate 1.00 kg/ha), the “post-emergence action against pig weed” value was “very good”.
For the molecule `CC[Si](CC)(CC)OCc1ccccc1C(O[Si](CC)(CC)CC)C(NC(=O)c1ccc(F)cc1C(F)(F)F)C(=O)NC` (stereo not shown) [Compound 3.152], the “post-emergence control of cleavers harrif” value in the data set on cleavers harrif (application rate 1.0 kg/ha) is given as “very good”. Besides, in the data set on green foxtail (application rate 1.00 kg/ha), the “post-emergence action against green foxtail” value was “very good”. Further, the “post-emergence action against lambsquarters” value with lambsquarters (application rate 1.00 kg/ha) is on record as “very good”. Also, in the data set with pig weed (application rate 1.00 kg/ha), the “post-emergence action against pig weed” value is reported as “very good”.
With `CNC(=O)[C@@H](NC(=O)c1ccc(F)cc1C(F)(F)F)[C@H](OC(=O)COCCOCCOC)c1ccc(F)c(F)c1F` [Compound 4.24], in the data set with cleavers harrif (application rate 0.5 kg/ha), the “post-emergence control of cleavers harrif” value is given as “very good”. Also, the “post-emergence action against green foxtail” value with green foxtail (application rate 0.5 kg/ha) is on record as “very good”. Moreover, the “post-emergence action against lambsquarters” value in the data set on lambsquarters (application rate 0.5 kg/ha) is listed as “very good”. Also, the “post-emergence action against pig weed” value in the data set with pig weed (application rate 0.5 kg/ha) is on record as “very good”.
